According to US20230263710A1, “ORAL CARE AGENT” (OSAKA UNIVERSITY, priority 2020, published 2023):
Like-named read-outs stand apart in the source and are kept apart here.

Test: Lewis acidity measuring method (1): reaction rate constant of reaction between CoTPP and oxygen in the presence of a Lewis acid
Type: physicochemical

| Compound | kcat (reaction rate constant of reaction between CoTPP and oxygen in the presence of a Lewis acid) [M^−2 s^−1] | kcat (reaction rate constant of reaction between CoTPP and oxygen in the presence of a Lewis acid) (acetonitrile, saturated O2, room temperature) [M^−2 s^−1] |
| --- | --- | --- |
| CCCC[N+](CCCC)(CCCC)CCCC.F[P-](F)(F)(F)(F)F [tetrabutylammonium hexafluorophosphate] | >0.1 | – |
| benzalkonium chloride | – | 0.18 |
| benzethonium chloride | 0.24 | – |
